System: crabgrass
Experiment: Greenhouse pot test, postemergent spray, visual control rating converted to percent control
Format: in vivo
Outline: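 Plants were rated visually at 24 HAT through 21 DAT on a 1 (none) to 9 (death) scale, later expressed as percent control. Treatment was a postemergent greenhouse pot spray delivering 43.46 gallons/acre onto plants in soilless media. Two- and three-way mixtures were judged for synergy against Colby-expected values.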

O=C(O)c1c(Cl)ccc2cc(Cl)cnc12 [Quinclorac, 3,7-dichloro-8-quinolinecarboxylic acid]
5: Control (1-9) Crabgrass (Test 1, 14 DAT, 0.375 lbs/A) | Control (1-9) Crabgrass (Test 1, 14 DAT, 0.75 lbs/A) | Control (1-9) Crabgrass (Test 2, 14 DAT, 0.18 lbs/A)
55.6%: % Control Crabgrass (Test 1, 14 DAT, 0.375 lbs/A) | % Control Crabgrass (Test 1, 14 DAT, 0.75 lbs/A) | % Control Crabgrass (Test 2, 14 DAT, 0.18 lbs/A)
11.1%: % Control Crabgrass (Test 4, 7 DAT, 0.18 lbs/A)
2: Control (1-9) Crabgrass (Test 1, 24 HAT, 0.18 lbs/A) | Control (1-9) Crabgrass (Test 1, 24 HAT, 0.375 lbs/A) | Control (1-9) Crabgrass (Test 1, 24 HAT, 0.75 lbs/A) | Control (1-9) Crabgrass (Test 2, 24 HAT, 0.375 lbs/A) | Control (1-9) Crabgrass (Test 2, 24 HAT, 0.75 lbs/A) | Control (1-9) Crabgrass (Test 4, 7 DAT, 0.375 lbs/A) | Control (1-9) Crabgrass (Test 4, 7 DAT, 0.75 lbs/A) | Control (1-9) Crabgrass (Test 4, 14 DAT, 0.18 lbs/A)
8: Control (1-9) Crabgrass (Test 2, 14 DAT, 0.75 lbs/A)
77.8%: % Control Crabgrass (Test 1, 14 DAT, 0.18 lbs/A) | % Control Crabgrass (Test 2, 7 DAT, 0.375 lbs/A) | % Control Crabgrass (Test 2, 7 DAT, 0.75 lbs/A) | % Control Crabgrass (Test 2, 14 DAT, 0.375 lbs/A)
7: Control (1-9) Crabgrass (Test 1, 14 DAT, 0.18 lbs/A) | Control (1-9) Crabgrass (Test 2, 7 DAT, 0.375 lbs/A) | Control (1-9) Crabgrass (Test 2, 7 DAT, 0.75 lbs/A) | Control (1-9) Crabgrass (Test 2, 14 DAT, 0.375 lbs/A)
1: Control (1-9) Crabgrass (Test 4, 7 DAT, 0.18 lbs/A)
33.3%: % Control Crabgrass (Test 1, 48 HAT, 0.18 lbs/A) | % Control Crabgrass (Test 2, 7 DAT, 0.18 lbs/A) | % Control Crabgrass (Test 2, 24 HAT, 0.18 lbs/A) | % Control Crabgrass (Test 2, 72 HAT, 0.375 lbs/A) | % Control Crabgrass (Test 4, 14 DAT, 0.375 lbs/A)
3: Control (1-9) Crabgrass (Test 1, 48 HAT, 0.18 lbs/A) | Control (1-9) Crabgrass (Test 2, 7 DAT, 0.18 lbs/A) | Control (1-9) Crabgrass (Test 2, 24 HAT, 0.18 lbs/A) | Control (1-9) Crabgrass (Test 2, 72 HAT, 0.375 lbs/A) | Control (1-9) Crabgrass (Test 4, 14 DAT, 0.375 lbs/A)
44.4%: % Control Crabgrass (Test 1, 7 DAT, 0.18 lbs/A) | % Control Crabgrass (Test 1, 7 DAT, 0.375 lbs/A) | % Control Crabgrass (Test 1, 7 DAT, 0.75 lbs/A) | % Control Crabgrass (Test 1, 48 HAT, 0.375 lbs/A) | % Control Crabgrass (Test 1, 48 HAT, 0.75 lbs/A) | % Control Crabgrass (Test 2, 72 HAT, 0.18 lbs/A) | % Control Crabgrass (Test 2, 72 HAT, 0.75 lbs/A) | % Control Crabgrass (Test 4, 14 DAT, 0.75 lbs/A)
4: Control (1-9) Crabgrass (Test 1, 7 DAT, 0.18 lbs/A) | Control (1-9) Crabgrass (Test 1, 7 DAT, 0.375 lbs/A) | Control (1-9) Crabgrass (Test 1, 7 DAT, 0.75 lbs/A) | Control (1-9) Crabgrass (Test 1, 48 HAT, 0.375 lbs/A) | Control (1-9) Crabgrass (Test 1, 48 HAT, 0.75 lbs/A) | Control (1-9) Crabgrass (Test 2, 72 HAT, 0.18 lbs/A) | Control (1-9) Crabgrass (Test 2, 72 HAT, 0.75 lbs/A) | Control (1-9) Crabgrass (Test 4, 14 DAT, 0.75 lbs/A)
88.9%: % Control Crabgrass (Test 2, 14 DAT, 0.75 lbs/A)
22.2%: % Control Crabgrass (Test 1, 24 HAT, 0.18 lbs/A) | % Control Crabgrass (Test 1, 24 HAT, 0.375 lbs/A) | % Control Crabgrass (Test 1, 24 HAT, 0.75 lbs/A) | % Control Crabgrass (Test 2, 24 HAT, 0.375 lbs/A) | % Control Crabgrass (Test 2, 24 HAT, 0.75 lbs/A) | % Control Crabgrass (Test 4, 7 DAT, 0.375 lbs/A) | % Control Crabgrass (Test 4, 7 DAT, 0.75 lbs/A) | % Control Crabgrass (Test 4, 14 DAT, 0.18 lbs/A)
